Test results taken from ChEMBL document CHEMBL1201862, “PubChem BioAssay data set” (2004).
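Step 1: Grow cells in 96-well plates. Step 2: Expose to compound for 48 hours at 5 concentrations. Step 3: Interpolate endpoints linearly; if unreached, use highest concentration. GI50 marks 50% less growth.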 Active and inactive are the calls of the source. No stated cut-off is given here; in the data, active = GI50 up to about 1.1 µM and inactive = higher.

Tests used:
Test in all cases: NCI tumour cell line growth inhibition, 48 h
786-0 = tested on: 786-0
A498 = tested on: A498
A549 = tested on: A549
BT-549 = tested on: BT-549
CAKI-1 = tested on: CAKI-1
HCC 2998 = tested on: HCC 2998
HOP-62 = tested on: HOP-62
Hs-578T = tested on: Hs-578T
KM12 = tested on: KM12
LOX IMVI = tested on: LOX IMVI
M14 = tested on: M14
MCF7 = tested on: MCF7
MDA-MB-231 = tested on: MDA-MB-231
MDA-N = tested on: MDA-N
NCI-H23 = tested on: NCI-H23
OVCAR-3 = tested on: OVCAR-3
OVCAR-4 = tested on: OVCAR-4
SF-539 = tested on: SF-539
SN12C = tested on: SN12C
UO-31 = tested on: UO-31

Measured: GI50

COc1cc(/C=C2/SC(c3ccccc3)N(c3cccc(Cl)c3)C2=O)cc(OC)c1OC (stereo not given)
inactive: 786-0 16.8 µM | A498 81.7 µM | A549 54.5 µM | BT-549 24.1 µM | CAKI-1 35.9 µM | HCC 2998 36.3 µM | HOP-62 39.8 µM | Hs-578T 47 µM | KM12 32.4 µM | LOX IMVI 12.1 µM | M14 19.8 µM | MCF7 24 µM | MDA-MB-231 67 µM | MDA-N 16.3 µM | NCI-H23 22.9 µM | OVCAR-3 40.1 µM | OVCAR-4 41 µM | SF-539 22.5 µM | SN12C 17.5 µM | UO-31 24.8 µM

c1ccc(-c2nnc(-c3ccccn3)c3c2C[C@@H]2C[C@@H]4Cc5c(-c6ccccn6)nnc(-c6ccccn6)c5[C@@H]4[C@H]32)nc1
inactive: 786-0 33.7 µM | A498 2.39 µM | A549 29 µM | BT-549 41.2 µM | CAKI-1 58.7 µM | HCC 2998 39.9 µM | HOP-62 41.2 µM | Hs-578T 70.3 µM | KM12 51.2 µM | LOX IMVI 55.5 µM | M14 20 µM | MCF7 66.1 µM | MDA-MB-231 > 100 µM | MDA-N 46.6 µM | NCI-H23 > 100 µM | OVCAR-3 85.9 µM | OVCAR-4 38.5 µM | SF-539 85.7 µM | SN12C 48.8 µM | UO-31 21.7 µM

NC1(c2cc3ccccc3s2)CCCC1
inactive: 786-0 54.2 µM | A498 > 100 µM | A549 90.6 µM | BT-549 > 100 µM | CAKI-1 > 100 µM | HCC 2998 21.2 µM | HOP-62 > 100 µM | Hs-578T > 100 µM | KM12 43.9 µM | LOX IMVI 36.5 µM | M14 25.5 µM | MCF7 57.8 µM | MDA-MB-231 83.8 µM | MDA-N 48.9 µM | NCI-H23 > 100 µM | OVCAR-3 > 100 µM | OVCAR-4 42.6 µM | SF-539 18.5 µM | SN12C 57.5 µM | UO-31 69.2 µM

CCCCCCCCCCCCCCCCCCNc1ccn(C2OC(COP(=O)(O)OCC3OC(n4cc(C)c(=O)[nH]c4=O)CC3O)C(O)C2O)c(=O)n1 (stereo not given)
inactive: 786-0 18 µM | A498 24.8 µM | A549 17.8 µM | BT-549 14.7 µM | CAKI-1 18.4 µM | HCC 2998 16.7 µM | HOP-62 16.7 µM | Hs-578T 19.4 µM | KM12 18.3 µM | LOX IMVI 17.7 µM | M14 17 µM | MCF7 34.6 µM | MDA-MB-231 14.6 µM | MDA-N 18.4 µM | NCI-H23 15.2 µM | OVCAR-3 19 µM | OVCAR-4 15.1 µM | SF-539 17.3 µM | SN12C 17.7 µM | UO-31 18.5 µM

CCCCn1c(-c2ccc([N+](=O)[O-])cc2)cs/c1=N/N=C1\C(=O)Nc2ccc(Br)cc21
inactive: 786-0 11.8 µM | A498 17.4 µM | A549 15.9 µM | BT-549 22.6 µM | CAKI-1 21.4 µM | HCC 2998 17.9 µM | HOP-62 15.7 µM | Hs-578T 43.2 µM | KM12 14.6 µM | LOX IMVI 18.9 µM | M14 12.1 µM | MCF7 3.28 µM | MDA-MB-231 15.7 µM | MDA-N 16.2 µM | NCI-H23 16.6 µM | OVCAR-3 15.5 µM | OVCAR-4 12.6 µM | SF-539 14 µM | SN12C 3.78 µM | UO-31 18.6 µM

NC(=O)N/N=C1\CC2C3CC4C2C4C13 (stereo not given)
inactive: 786-0 > 100 µM | A498 > 100 µM | A549 > 100 µM | BT-549 > 100 µM | CAKI-1 > 100 µM | HCC 2998 > 100 µM | HOP-62 > 100 µM | Hs-578T > 100 µM | KM12 > 100 µM | LOX IMVI > 100 µM | M14 > 100 µM | MCF7 > 100 µM | MDA-MB-231 > 100 µM | MDA-N > 100 µM | NCI-H23 > 100 µM | OVCAR-3 > 100 µM | OVCAR-4 91 µM | SF-539 > 100 µM | SN12C > 100 µM | UO-31 > 100 µM

O=S(=O)(N/C(=N\O)Nc1ccc(Cl)cc1)c1cc(S(=O)(=O)c2ccccc2)cs1
inactive: 786-0 15.7 µM | A498 13.8 µM | A549 24 µM | BT-549 15.5 µM | CAKI-1 16.6 µM | HCC 2998 13.4 µM | HOP-62 17.5 µM | Hs-578T 13.6 µM | KM12 22.2 µM | LOX IMVI 15.5 µM | M14 15.1 µM | MCF7 17.3 µM | MDA-MB-231 20.3 µM | MDA-N 15.8 µM | NCI-H23 17.9 µM | OVCAR-3 13.5 µM | OVCAR-4 12.9 µM | SF-539 14.3 µM | SN12C 15.2 µM | UO-31 14.3 µM
